The values below come from patent US7968725B2, “Pyridinyl modulators of γ-secretase” (Janssen Pharmaceutica N.V., priority 2008, dated 2011).

The target in one assay is T1, γ-secretase (Homo sapiens, UniProt P49768).
T1 construct: endogenous in cells; host or cells: SKNBE2 cells carrying APP 695 wild type
The assay is described as follows: Screening for γ-secretase-modulating activity in SKNBE2 cells carrying the APP 695-wild type (assay per Citron et al 1997). The format is cell-based. The following applies: @ 1 uM; SKNBE2 cells carrying APP 695-wild type. As to the method: Screening of the Compounds of the Invention for γ-Secretase-Modulating Activity
Screening was carried out using SKNBE2 cells carrying the APP 695-wild type, grown in DMEM/NUT-mix F12 (HAM) provided by Gibco (cat no. 31330-38) containing 5% Serum/Fe supplemented with 1% non-essential amino acids.
Cells were grown to near confluency.
The screening was performed using the assay as described in Citron et al (1997) Nature Medicine 3: 67.
As a reminder, the inhibition is the change of the read-out against control, counted positive when it falls. Turning to `CC(C)CC(C(=O)O)c1cc(-c2ccc(C(F)(F)F)cc2)nc(-c2ccc(F)cc2F)c1` (stereo not drawn) [Example 22, 2-[2-(2,4-Difluoro-phenyl)-6-(4-trifluoromethyl-phenyl)-pyridin-4-yl]-4-methyl-pentanoic acid], the inhibition at 1 µM was 5%. `C=C(C)CC(C(=O)O)c1cc(-c2ccc(C)cc2)nc(-c2ccc(C(F)(F)F)cc2)c1` (stereo not drawn) [Example 32, 4-Methyl-2-[2-p-tolyl-6-(4-trifluoromethyl-phenyl)-pyridin-4-yl]-pent-4-enoic acid]: the inhibition at 1 µM is 7%.

`CC(C)CC(C(=O)O)c1cc(-c2ccc(C(F)(F)F)cc2)nc(-c2cccc(-c3ccccc3)c2)c1` (stereo not drawn) [Example 35, 2-[2-Biphenyl-3-yl-6-(4-trifluoromethyl-phenyl)-pyridin-4-yl]-4-methyl-pentanoic acid] displayed an inhibition at 1 µM of 53%. The same measure, in the same setting: next, `CC(C)CC(C(=O)O)c1cc(-c2ccc(C(F)(F)F)cc2)nc(-c2cccc(F)c2F)c1` (stereo not drawn) [Example 21, 2-[2-(2,3-Difluoro-phenyl)-6-(4-trifluoromethyl-phenyl)-pyridin-4-yl]-4-methyl-pentanoic acid]: 12%. Consider `C=C(C)CC(C(=O)O)c1cc(-c2ccc(C(F)(F)F)cc2)nc(-c2ccc3ccccc3c2)c1` (stereo not drawn) [Example 15, 4-Methyl-2-[2-naphthalen-2-yl-6-(4-trifluoromethyl-phenyl)-pyridin-4-yl]-pent-4-enoic acid], for which the inhibition at 1 µM is 19%. The compound `CC(C)CC(C(=O)O)c1cc(-c2ccc(C(F)(F)F)cc2)nc(-c2c(F)cccc2F)c1` (stereo not drawn) [Example 26, 2-[2-(2,6-Difluoro-phenyl)-6-(4-trifluoromethyl-phenyl)-pyridin-4-yl]-4-methyl-pentanoic acid] returned an inhibition at 1 µM of 2%. The compound `C=C(C)CC(C(=O)O)c1cc(-c2ccc(C(F)(F)F)cc2)nc(-c2cc3ccccc3s2)c1` (stereo not drawn) [Example 28, 2-[2-Benzo[b]thiophen-2-yl-6-(4-trifluoromethyl-phenyl)-pyridin-4-yl]-4-methyl-pent-4-enoic acid] returned an inhibition at 1 µM of 0%. Regarding `CC(C)CC(C(=O)O)c1cc(-c2ccc(C(F)(F)F)cc2)nc(-c2ccc(C(F)(F)F)cc2C(F)(F)F)c1` (stereo not drawn) [Example 17, 2-[2-(2,4-Bis-trifluoromethyl-phenyl)-6-(4-trifluoromethyl-phenyl)-pyridin-4-yl]-4-methyl-pentanoic acid], the inhibition at 1 µM was 64%. `C=C(C)CC(C(=O)O)c1cc(-c2ccc(C(F)(F)F)cc2)nc(-c2ccc(C(F)(F)F)nc2)c1` (stereo not drawn) [Example 31, 4-Methyl-2-[6′-trifluoromethyl-6-(4-trifluoromethyl-phenyl)-[2,3′]bipyridinyl-4-yl]-pent-4-enoic acid]: the inhibition at 1 µM stood at 59%. In turn, `CC(C)CC(C(=O)O)c1cc(-c2ccc(C(F)(F)F)cc2)nc(-c2cncc3ccccc23)c1` (stereo not drawn) [Example 19, 2-[2-Isoquinolin-4-yl-6-(4-trifluoromethyl-phenyl)-pyridin-4-yl]-4-methyl-pentanoic acid] displayed an inhibition at 1 µM of 14%. In the case of `C=C(C)CC(C(=O)O)c1cc(-c2ccc(C(F)(F)F)cc2)nc(-c2cccc(F)c2F)c1` (stereo not drawn) [Example 20, 2-[2-(2,3-Difluoro-phenyl)-6-(4-trifluoromethyl-phenyl)-pyridin-4-yl]-4-methyl-pent-4-enoic acid], the inhibition at 1 µM amounted to 9%. Turning to `CC(C)CC(C(=O)O)c1cc(-c2ccc(F)cc2)nc(-c2ccc(C(F)(F)F)cc2)c1` (stereo not drawn) [Example 2, 2-[2-(4-Fluoro-phenyl)-6-(4-trifluoromethyl-phenyl)-pyridin-4-yl]-4-methyl-pentanoic acid], the inhibition at 1 µM was 28%.

Take `C=C(C)CC(C(=O)O)c1cc(-c2ccc(C(F)(F)F)cc2)nc(-c2cncc3ccccc23)c1` (stereo not drawn) [Example 18, 2-[2-Isoquinolin-4-yl-6-(4-trifluoromethyl-phenyl)-pyridin-4-yl]-4-methyl-pent-4-enoic acid]: the inhibition at 1 µM is 14%. `CC(C)CC(C(=O)O)c1cc(-c2ccc(C(F)(F)F)cc2)nc(-c2ccc3ccccc3c2)c1` (stereo not drawn) [Example 14, 4-Methyl-2-[2-naphthalen-2-yl-6-(4-trifluoromethyl-phenyl)-pyridin-4-yl]-pentanoic acid] came in with an inhibition at 1 µM of 34%. Compound `CC(C)CCN(c1ccc(C(F)(F)F)cc1)c1cc(CC(=O)O)cc(-c2ccc(C(F)(F)F)cc2)n1` [Example 42, [2-[(3-Methyl-butyl)-(4-trifluoromethyl-phenyl)-amino]-6-(4-trifluoromethyl-phenyl)-pyridin-4-yl]-acetic acid] came in with an inhibition at 1 µM of 36%. Still for that read-out and setting: then `C=C(C)CC(C(=O)O)c1cc(-c2ccc(C(F)(F)F)cc2)nc(-c2c(F)cccc2F)c1` (stereo not drawn) [Example 27, 2-[2-(2,6-Difluoro-phenyl)-6-(4-trifluoromethyl-phenyl)-pyridin-4-yl]-4-methyl-pent-4-enoic acid], with 5%; and `CC(C)CC(C(=O)O)c1cc(-c2ccc(C(F)(F)F)cc2)nc(N(CCN2CCCCC2)c2ccc(C(F)(F)F)cc2)c1` (stereo not drawn) [Example 45, 4-Methyl-2-[2-[(2-piperidin-1-yl-ethyl)-(4-trifluoromethyl-phenyl)-amino]-6-(4-trifluoromethyl-phenyl)-pyridin-4-yl]-pentanoic acid], with 20%; and `COc1ccc(-c2cc(C(CC(C)C)C(=O)O)cc(-c3ccc(C(F)(F)F)cc3)n2)cc1` (stereo not drawn) [Example 4, 2-[2-(4-Methoxy-phenyl)-6-(4-trifluoromethyl-phenyl)-pyridin-4-yl]-4-methyl-pentanoic acid], with 1%.

The same assay, now with this note: SKNBE2 cells carrying APP 695-wild type.
By EC50 is commonly meant the midpoint of the concentration-response curve. Read a high EC50 as a need for much substance. Consider `CC(C)CC(C(=O)O)c1cc(-c2ccc(C(F)(F)F)cc2)nc(-c2cc(C(F)(F)F)cc(C(F)(F)F)c2)c1` (stereo not drawn) [Example 6, 2-[2-(3,5-Bis-trifluoromethyl-phenyl)-6-(4-trifluoromethyl-phenyl)-pyridin-4-yl]-4-methyl-pentanoic acid], for which the concentration for a half-maximal effect (EC50) was 270 nM. In turn, `CC(C)CC(C(=O)O)c1cc(-c2ccc(C(F)(F)F)cc2)nc(N(CC(C)C)c2ccc(C(F)(F)F)cc2)c1` (stereo not drawn) [Example 40, 2-[2-[Isobutyl-(4-trifluoromethyl-phenyl)-amino]-6-(4-trifluoromethyl-phenyl)-pyridin-4-yl]-4-methyl-pentanoic acid] displayed a 50% effective concentration (EC50) of 340 nM. In turn, `CC(C)CC(C(=O)O)c1cc(-c2ccc(C(F)(F)F)cc2)nc(-c2cc(F)cc(C(F)(F)F)c2)c1` (stereo not drawn) [Example 8, 2-[2-(3-Fluoro-5-trifluoromethyl-phenyl)-6-(4-trifluoromethyl-phenyl)-pyridin-4-yl]-4-methyl-pentanoic acid] gave an EC50 of 120 nM. Take `CC(C)CC(C(=O)O)c1cc(-c2ccc(C(F)(F)F)cc2)nc(N(CCC2CCCCC2)c2ccc(C(F)(F)F)cc2)c1` (stereo not drawn) [Example 44, 2-[2-[(2-Cyclohexyl-ethyl)-(4-trifluoromethyl-phenyl)-amino]-6-(4-trifluoromethyl-phenyl)-pyridin-4-yl]-4-methyl-pentanoic acid]: the EC50 worked out at 640 nM. In the case of `CC(C)CCN(c1ccc(C(C)(C)C)cc1)c1cc(CC(=O)O)cc(-c2ccc(C(F)(F)F)cc2)n1` [Example 47, [2-[(4-tert-Butyl-phenyl)-(3-methyl-butyl)-amino]-6-(4-trifluoromethyl-phenyl)-pyridin-4-yl]-acetic acid], the midpoint of the response, the EC50, lay at 1290 nM.

`CC(C)CC(C(=O)O)c1cc(-c2ccc(C(F)(F)F)cc2)nc(-c2cnc3ccccc3c2)c1` (stereo not drawn) [Example 7, 4-Methyl-2-[2-quinolin-3-yl-6-(4-trifluoromethyl-phenyl)-pyridin-4-yl]-pentanoic acid] gave a concentration giving a half-maximal response (EC50) of 670 nM.
